According to patent US7138388B2, “Methods to treat autoimmune and inflammatory conditions” (Celmed Oncology (USA), Inc., priority 2001, dated 2006):

Tested on: animals with collagen-induced arthritis
Assay: Collagen-induced arthritis in mice: treatment after disease onset, assessed by clinical score and paw swelling
Format: in vivo, male DBA/1 mice
Experimental: Arthritis was induced in male DBA/1 mice (8–10 weeks old) by intradermal injection of bovine type II collagen, purified in-house at the Kennedy Institute of Rheumatology as previously described (Miller, E. J. et al. (1972)). Collagen was administered in complete Freund's adjuvant (Difco, Detroit, Michigan). Onset of arthritis was variable, occurring from Day 14 up to Day 40 after immunization. Arthritis onset was considered to occur on the day that swelling and/or erythema were observed. Clinical score is a composite of disease severity and the number of limbs affected, and was monitored daily from onset of disease and used as an assessment of disease progress. The scoring used was: 0, Normal; 1, slight swelling with erythema; 2, pronounced swelling; 3, joint rigidity. In addition, the extent of paw swelling reflects the degree of edema in affected limbs. Arthritis increased progressively over 10 days as reflected by both clinical score and paw swelling.
Anti-TNF antibody was used in these experiments was as described by Marinova-Mutafchieva, L. et al. (2000). NB1011 was administered daily by intraperitoneal administration at 2.5 mg total dose per day. Anti-TNF antibody was compared with NB1011 because, at present, antiTNF antibody is the optimal single agent for treatment of collagen induced arthritis (Marinova-Mutafchieva, L. et al. (2000)).
Following immunization with collagen, mice were maintained until a significant clinical score for disease progression was achieved (between 2.5 and 3.5, see FIG. 1 and Methods). Mice were then treated with control saline injections, NB1011, or with anti-TNF antibody as a positive control. […] Paw swelling is an alternative measure of CIA disease severity.

In the case of “5-(2-Bromovinyl)-2′-deoxyuridine phenyl N-methoxy-L-alaninyl phosphoramidate [NB1011]”, the “difference between NB1011 and anti-TNF groups with regard to clinical score” value (FIG. 1, NB1011 compared with anti-TNF positive control) is reported as “no significant difference”, the “disease suppression by clinical score” value (FIG. 1, vs saline-treated control group, p<0.05, NB1011 intraperitoneal daily, 2.5 mg total dose per day, treatment started at clinical score between 2.5 and 3.5) is reported as “significant disease suppression” and the “difference between NB1011 and anti-TNF groups with regard to paw swelling” value (FIG. 2, NB1011 compared with anti-TNF positive control) is reported as “no significant difference”. For the same substance, the “suppression of swelling relative to anti-TNF group” value (FIG. 2, qualitative remark) was “may have been less dramatic”, the “disease suppression by paw swelling” value (FIG. 2, vs saline-treated control group, p<0.05, NB1011 intraperitoneal daily, 2.5 mg total dose per day) was “significant disease suppression” and the “activity by comparison with earlier reported work on other agents” value (comparison with literature (Malfait 2000; Miotla 2000; Marinova-Mutafchieva 2000)) was “superior to anti-angiogenesis agents, an anti-CD4 immunosuppressive agent, and cannabidiol”.
